CC(C)(C)OC(=O)N1CCC[C@H]1C(=O)O
solubility (mole fraction)
Conditions	283.15 K	288.15 K	293.15 K	298.15 K	303.15 K	313.15 K	323.15 K
in 2-butanone	0.0371	–	0.0532	–	0.0687	0.0925	0.125
in acetone	0.0457	–	0.06	–	0.075	0.0965	0.129
in acetonitrile	0.0113	–	0.0166	–	0.0247	0.0379	0.054
in dichloromethane	0.0896	0.098	0.107	0.116	0.125	–	–
in ethanol	0.0968	–	0.111	–	0.133	0.172	0.215
in ethyl acetate	0.0217	–	0.0303	–	0.0392	0.0494	0.0606
in isobutanol	0.072	–	0.0942	–	0.12	0.143	0.166
in isopropanol	0.0971	–	0.114	–	0.134	0.168	0.208
in methanol	0.115	–	0.15	–	0.196	0.24	0.297
in methyl acetate	0.0252	–	0.0339	–	0.0436	0.055	0.0698
in n-butanol	0.0889	–	0.103	–	0.126	0.149	0.178
in n-propanol	0.0944	–	0.109	–	0.132	0.16	0.19
in sec-butanol	0.0968	–	0.127	–	0.157	0.193	0.232
in water	6.6e-05	–	0.000204	–	0.000593	0.000959	0.00144

Reference: BigSolDB 2.1
